# According to ChEMBL document CHEMBL1201862, “PubChem BioAssay data set” (2004):
#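 How tested: cells in 96-well plates exposed to compound for 48 hours at five concentrations. GI50 marks 50% less growth.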 The source made the active and inactive calls. No stated cut-off is given here; in the data, active = GI50 up to about 1.1 µM and inactive = higher.
# Key:
# Assay in all cases: NCI tumour cell line growth inhibition, 48 h
# [1] = test system: NCI-H226
# [2] = test system: SK-MEL-2
# [3] = test system: KM-20L2
# [4] = test system: SW-620
# [5] = test system: A549
# [6] = test system: HCT-15
# [7] = test system: XF498
# [8] = test system: DMS-114
# [9] = test system: OVCAR-3
# [10] = test system: M19-MEL
# [11] = test system: SNB-78
# [12] = test system: DMS-273
# [13] = test system: SF-268
# [14] = test system: RXF 393
# [15] = test system: SK-OV-3
# [16] = test system: LOX IMVI
# [17] = test system: ACHN
# [18] = test system: DLD-1
# [19] = test system: MDA-MB-231
# [20] = test system: Hs-578T
SMILES,GI50 [1],GI50 [2],GI50 [3],GI50 [4],GI50 [5],GI50 [6] [µM],GI50 [7],GI50 [8],GI50 [9],GI50 [10],GI50 [11],GI50 [12],GI50 [13],GI50 [14],GI50 [15],GI50 [16],GI50 [17],GI50 [18],GI50 [19],GI50 [20]
CCOC(=O)/C(=C\c1ccc[nH]1)C(=O)c1ccccc1,> 100 µM (inactive),89.9 µM (inactive),> 100 µM (inactive),52.7 µM (inactive),> 100 µM (inactive),> 100,> 100 µM (inactive),34.3 µM (inactive),> 100 µM (inactive),> 100 µM (inactive),> 100 µM (inactive),26.2 µM (inactive),91 µM (inactive),38.2 µM (inactive),> 100 µM (inactive),91.2 µM (inactive),> 100 µM (inactive),> 100 µM (inactive),,
Cc1c(CNc2ccc(C(=O)NC(CC(=O)O)C(=O)O)cc2)ccc2nc(N)nc(N)c12 (centres undefined),> 100 µM (inactive),> 100 µM (inactive),,< 0.01 µM (active),< 0.01 µM (active),< 0.01,68.1 µM (inactive),< 0.01 µM (active),,0.122 µM (active),> 100 µM (inactive),< 0.01 µM (active),< 0.01 µM (active),5.04 µM (inactive),0.146 µM (active),< 0.01 µM (active),< 0.01 µM (active),< 0.01 µM (active),> 100 µM (inactive),684 µM (inactive)
COC1=C2CC(C)CC(OC)C(O)C(C)/C=C(\C)C(OC(N)=O)C(OC)/C=C\C=C(/C)C(=O)NC(=C(/C=N/N3CCCCC3)C1=O)C2=O (centres undefined),12.4 µM (inactive),17 µM (inactive),5 µM (inactive),2.82 µM (inactive),21.5 µM (inactive),12.2,8.95 µM (inactive),,2.15 µM (inactive),7 µM (inactive),12.4 µM (inactive),13.6 µM (inactive),6.18 µM (inactive),5.73 µM (inactive),21.9 µM (inactive),8.55 µM (inactive),15.4 µM (inactive),8.47 µM (inactive),,
COC(=O)c1c(CC(=O)OC(C)C)cc2n(c1=O)Cc1c-2nc2ccccc2c1OC,99.1 µM (inactive),> 100 µM (inactive),> 100 µM (inactive),> 100 µM (inactive),> 100 µM (inactive),> 100,> 100 µM (inactive),> 100 µM (inactive),> 100 µM (inactive),> 100 µM (inactive),,> 100 µM (inactive),> 100 µM (inactive),26.4 µM (inactive),> 100 µM (inactive),> 100 µM (inactive),> 100 µM (inactive),> 100 µM (inactive),,
Cn1c(=O)oc2cc(C3CCC(=O)N3Cc3ccc(Cl)cc3)ccc21 (centres undefined),> 100 µM (inactive),> 100 µM (inactive),> 100 µM (inactive),> 100 µM (inactive),> 100 µM (inactive),> 100,> 100 µM (inactive),> 100 µM (inactive),,> 100 µM (inactive),> 100 µM (inactive),> 100 µM (inactive),> 100 µM (inactive),29.6 µM (inactive),93.3 µM (inactive),> 100 µM (inactive),> 100 µM (inactive),92 µM (inactive),,
CC1=NN(C(=O)c2ccccc2O)C(=O)/C1=C/c1ccc([N+](=O)[O-])cc1,0.459 µM (active),,7.96 µM (inactive),0.738 µM (active),0.0931 µM (active),0.361,0.664 µM (active),0.0875 µM (active),0.172 µM (active),2.3 µM (inactive),0.0861 µM (active),,0.0855 µM (active),< 0.01 µM (active),0.0966 µM (active),0.267 µM (active),0.106 µM (active),0.0643 µM (active),26.9 µM (inactive),0.348 µM (active)
C[N+](C)(C)CC1CCC/C1=N\OC(=O)c1ccccc1 (centres undefined),> 100 µM (inactive),> 100 µM (inactive),> 100 µM (inactive),> 100 µM (inactive),> 100 µM (inactive),> 100,> 100 µM (inactive),> 100 µM (inactive),> 100 µM (inactive),> 100 µM (inactive),> 100 µM (inactive),,> 100 µM (inactive),> 100 µM (inactive),> 100 µM (inactive),> 100 µM (inactive),> 100 µM (inactive),> 100 µM (inactive),,
Cc1cccc(NC(=O)Cc2nc3ccccc3s2)c1C,> 100 µM (inactive),> 100 µM (inactive),> 100 µM (inactive),> 100 µM (inactive),> 100 µM (inactive),> 100,> 100 µM (inactive),> 100 µM (inactive),> 100 µM (inactive),> 100 µM (inactive),,> 100 µM (inactive),> 100 µM (inactive),> 100 µM (inactive),> 100 µM (inactive),> 100 µM (inactive),> 100 µM (inactive),> 100 µM (inactive),,
